According to patent EP4696306A1, “ADENOSINE TRIPHOSPHATE SECRETION INHIBITOR, HEPATIC STELLATE CELL ACTIVATION INHIBITOR, HEPATIC STELLATE CELL DEACTIVATOR, HEPATIC FIBROSIS THERAPEUTIC AGENT, NON-ALCOHOLIC STEATOHEPATITIS THERAPEUTIC AGENT, PSORIASIS THERAPEUTIC AGENT, AND USE OF COMPOUND FOR PRODUCING ADENOSINE TRIPHOSPHATE …” (KURUME UNIVERSITY, priority 2023, dated 2024):

Tested on: human epidermal keratinocytes
Test: ATP secretion promoted by ionomycin in keratinocytes
Assay type: cell-based
Procedure: Human epidermal keratinocytes (Cryopreserved HEK, Lot 1758, Cell Applications Inc.) were cultured using an Epivita Keratinocyte Growth Medium Kit according to the manufacturer's instructions. The procedure was as follows. A supplement medium was added to a hydrocortisone-containing basal medium included in the medium preparation kit to prepare a complete medium. The medium in the dish was removed by aspiration. The cells were washed with 5 ml of BSS (Gbco), and then the BSS was removed by aspiration. After addition of 5 to 6 ml of trypsin/EDTA solution (Gbco), the dish was incubated at 37°C for 2 minutes. After addition of 5 ml of trypsin neutralization solution, the resulting cell suspension was transferred into two 15-ml Falcon tubes, and centrifuged at 200 × g for 5 minutes. The supernatant was removed by aspiration, and the pelleted cell cluster was suspended in 2 ml of the medium at 4.5 × 10^5 cells/ml. An aliquot of the resulting cell suspension was cryopreserved, while another aliquot was cultured and subjected to measurement.
ATP secretion by human epidermal keratinocytes (hereinafter referred to as "keratinocytes") was measured. Regarding control solutions, Krebs-Ringer HEPES supplemented with 0.2% BSA and 25 mM glucose (hereinafter also referred to as "Krebs/Iono(-)") was used as a negative control, and a solution prepared by adding 5 µM ionomycin to this solution (hereinafter also referred to as "Krebs/Iono(+)") was used as a positive control for ATP secretion. Ionomycin is a Ca^2+ ionophore. Addition of ionomycin to cells is known to promote influx of extracellular Ca^2+ into the cells to increase the intracellular Ca^2+ concentration, resulting in enhancement of ATP secretion. Test solutions were prepared by adding clodronate to Krebs/Iono(-) or Krebs/Iono(+) to a final concentration of 0.1 µM (hereinafter also referred to as "Clo/Iono(-)" or "Clo/Iono(+)", respectively) (N = 3).
Keratinocytes were cultured at 2.5 × 10^4 cells/well in a 24-well plate at 37°C in 5% CO2 for 4 days. The medium was removed by aspiration, replaced with Krebs/Iono(-) or Clo/Iono(-), and incubated at 37°C for 6 hours. These solutions were then removed by aspiration, and the content of each well incubated with Krebs/Iono(-) was replaced with 300 µl of a control solution (Krebs/Iono(-) or Krebs/Iono(+)), while the content of each well incubated with Clo/Iono(-) was replaced with 300 µl of a test solution (Clo/Iono(-) or Clo/Iono(+)). After further incubation at 37°C for 20 minutes, 200 µl of the supernatant was collected. The collected supernatant was immediately treated on a heat block at 95°C for 10 minutes, to inactivate ectonucleotidase. ATP in the supernatant was quantified using a Dojindo ATP assay kit - Luminescence (manufactured by Dojindo Laboratories).
After culturing keratinocytes, the medium was removed by aspiration, and replaced with Krebs/Iono(-), or Krebs/Iono(-) supplemented with 10 µM imeglimin, 0.1 µM EPA, 1 µM EPA, or 10 µM clodronate, followed by incubation for 6 hours. Subsequently, the solution was replaced with either a control solution (Krebs/Iono(-) or Krebs/Iono(+)) or a test solution (Krebs/Iono(+) supplemented with 10 µM imeglimin, 0.1 µM EPA, 1 µM EPA, or 10 µM clodronate), followed by incubation at 37°C for 20 minutes and then collection of 200 µl of the supernatant. The collected supernatant was immediately treated on a heat block at 95°C for 10 minutes to inactivate ectonucleotidase. ATP in the supernatant was quantified using a Dojindo ATP assay kit - Luminescence (manufactured by Dojindo Laboratories).
Keratinocytes were cultured in the same manner as in Example 1, and the medium was replaced with Krebs/Iono(-), Krebs/Iono(-) supplemented with 0.1 µM, 1 µM, or 10 µM imeglimin, or Krebs/Iono(-) supplemented with 0.1 µM, 1 µM, or 10 µM metformin, followed by incubation for 6 hours. […]

[1] = 10 µM, 6 hours incubation, then 20 minutes with ionomycin, N = 4

With `C=C(OP(=O)(O)O)C(=O)O` [PEP, phosphoenolpyruvic acid] the “ATP secretion promoted by ionomycin” value (5 mM PEP, 20 minutes, N = 4) was “inhibited”, the “ATP secretion promoted by ionomycin” value (10 mM PEP, 20 minutes, N = 4) was “inhibited” and the “concentration exhibiting a relatively strong ATP secretion inhibitory effect” value (data not shown) was “not less than 3 mM”.
`O=P(O)(O)C(Cl)(Cl)P(=O)(O)O` [clodronate] was tested, and the “ATP secretion promoted by ionomycin” value (0.1 µM clodronate, 6 hours incubation, then 20 minutes with 5 µM ionomycin, N = 3) was “inhibits the ATP secretion promoted by ionomycin” and the “ATP secretion promoted by ionomycin” value [1] was “inhibited”.
`C[C@H]1N=C(N(C)C)N=C(N)N1` [imeglimin] was tested, and the “ATP secretion inhibitory effect, comparison and concentration dependence” value (0.1 µM, 1 µM, 10 µM, 6 hours incubation, N = 3) was “slightly higher ATP secretion inhibitory effect than metformin”, the “ATP secretion inhibitory effect” value (0.1 µM, 6 hours incubation, N = 3) was “exhibit an ATP secretion inhibitory effect” and the “time required for production of a strong inhibitory effect” value (1 µM imeglimin) was “about 6 hours”. The “ATP secretion level relative to that obtained using the control solution” value (1 µM imeglimin, incubation time 2 hours, N = 3) was “about 85%”, the “ATP secretion level relative to that obtained using the control solution” value (1 µM imeglimin, incubation time 6 hours, N = 3) was “about 40%” and the “ATP secretion inhibitory effect compared with reference inhibitors” value (10 µM imeglimin versus 1 µM EPA and 10 µM clodronate) was “comparable to those of 1 µM EPA and 10 µM clodronate”. The “ATP secretion promoted by ionomycin” value [1] was “inhibited”.
